# Tests used:
# [1] = Water solubility (remark in synthesis); type: physicochemical
# Procedure: 1,2-Diphosphono-o-carborane was prepared as follows: To a solution of 5 g o-carborane in dry THF was added dropwise 46.7 ml of a 1.5 N solution of n-butyllithium at 0° C. To the mixture was then quickly added 11 g diethyl chlorophosphite. The solution was refluxed for several hours. The THF was evaporated. The resulting residue contained unreacted o-carborane and 1,2-di(diethyl phosphite) o-carborane. The latter was hydrolized to the corresponding acid in 500 ml 6 N HCl by refluxing during 24 hours, after which the remaining HCl solution was evaporated. […] The water was then evaporated, and the residue mixed with 50 ml 10% hydrogen peroxide. The mixture was carefully refluxed until the reaction was completed. The structure of 1,2-diphosphono-o-carborane was verified by ^31 P and ^11 B NMR.
# [2] = Oral capsules followed by neutron irradiation in adult with a bone tumor (Example VIII); type: in vivo, adult (human); details: oral capsules (350 mg MECB or replacement) twice daily, ten days; 37 eV neutron beam about 24 hrs after last capsule
# Procedure: Capsules are prepared by conventional methods, comprised as follows:
# To a 76 kg adult with a bone tumor are administered orally twice daily the above capsules for a period of ten days. About 24 hrs after the last capsule is administered, the tumor site is irradiated with a 37 eV neutron beam of 2.4×10^8 neutrons cm^-2 s^-1.
# [3] = Animal skeletal uptake test (99mTc scan); type: in vivo, Rabbits; details: 99mTc-labelled solution, 1.0 ml injected; scanned at 3 hrs and 21 hrs
# Procedure: In this test the skeletal uptake of a polyphosphonate compound is established as follows:
# A reducing solution is prepared by mixing 5.0 ml of a 0.34 N NTA solution, 1.0 ml of a 0.84 M SnCl2 solution and 3.0 ml H2 O. The pH of the solution is adjusted to 5.6 with 1.0 N NaOH. 100 ul of the reducing solution is added to 1.0 ml of a ^99m TcO4^- solution, containing 19.6 mCi. The reduction of TcO4^- is checked by TLC. 0.9 ml of a 35 mg/ml solution of a boron polyphosphonate is added to the reduced technetiate solution. Rabbits are injected with 1.0 ml each of this solution. The animals are scanned for skeletal uptake at 3 hrs and 21 hrs after injection.
# [4] = Crystal Growth Inhibition Test; details: for Lag Time: pH 7.4
# Procedure: The test is conducted as follows:
# 50 ml of a 0.01 M KH2 PO4 stock solution is diluted with 1000 ml N2 purged distilled water. 1 ml of an aqueous solution of the polyphosphonate to be tested (at a concentration to provide the desired ultimate concentration in the reaction mixture) is added to the diluted KH2 PO4 solution and the solution is adjusted to pH 7.4 with potassium hydroxide. To this solution is added 50 ml of a 0.0175 N CaCl2 solution preadjusted to pH 7.4. The KOH consumption is recorded as a function of time. The rate of KOH consumption is directly related to the rate of calcium phosphate formation. In the absence of polyphosphonate the formation of calcium phosphate starts at t=o, i.e. when the solutions of KH2 PO4 and CalCl2 are mixed. Low levels of polyphosphonates are capable of inhibiting the formation of calcium phosphate for 20 minutes or longer. This effect depends on the propensity of the polyphosphonates to adsorb on calcium phosphate crystal nuclei.
# 1-Methyl, 2-(2,2-ethane diphosphonic acid) o-carborane (MECB) was subjected to the Crystal Growth Inhibition Test.
# [5] = Oral tablets followed by neutron irradiation in patient with calcified tumor (Example IX); type: in vivo, patient (human)
# Procedure: Tablets are prepared by conventional methods, formulated as follows: […]
compound,measurement,setting,value
"1,2-dicarbaclosododeca borane (12) [o-carborane]",solubility in water,[1],not soluble in water
"1-Methyl, 2-(2,2-ethane diphosphonic acid) o-carborane [MECB]",level of alpha and Li particles generated in the tumor tissue,[2],effective level
same,skeletal affinity,[3],high skeletal affinity
same,Lag Time,[4]; Concentration 1 × 10^-6 Mole,25 min
same,Lag Time,[4]; Concentration 2 × 10^-6 Mole,37 min
same,capability to retard the formation of calcium phosphate,"[4]; compared with Cl2 MDP, Table I",the same as that of Cl2 MDP
"O=P(O)(O)C(Cl)(Cl)P(=O)(O)O [Cl2 MDP, dichloromethylene diphosphonate, reference compound]",Lag Time,[4]; Concentration 1 × 10^-6 Mole,18 min
same,Lag Time,[4]; Concentration 2 × 10^-6 Mole,41 min
"CC(O)(P(=O)(O)O)P(=O)(O)O [EHDP, Ethane hydroxy diphosphonate, reference compound]",Lag Time,[4]; Concentration 1 × 10^-6 Mole,82 min
"1,2-di(2-chloro-2,2-ethane diphosphonic acid)o-carborane [DC1EDP]",deposition of 10B in the calcified tumor tissue,[5]; oral tablets (25 mg) four times daily,significant amounts
same,levels of localized alpha particles emitted,"[5]; oral tablets four times daily, irradiation by 37 eV neutrons",effective levels

# Source: US4399817A, “Boron containing polyphosphonates for the treatment of calcific tumors” (The Procter & Gamble Company, priority 1981, dated 1983)
